The subject of data set [1] is pancreatic cancer. As to conditions: cited from earlier work; for tumor volume over time: mice, repeated injections, compared with control group curve CRTL; for effect on pancreatic cancer cells/tumors in mice: reported by Donadelli, high dosages of CB1 ligand.
Data set [2] can be described thus: War veterans with PTSD given cannabinoid infused chocolates. The data set is classed as in vivo, human. The settings on record: THC alone. As to the method:
In a separate set of observations and tests, war veterans suffering from post-traumatic stress disorder (PTSD) were observed purchasing large amounts of un-tested hashish from local dispensaries on sale days. After observing this, samples of this hashish were tested. […] Veterans suffering from PTSD received cannabinoid infused chocolates with controlled dosages. This process identified that chocolates infused with 44 mg of THC and 4 mg of CBD were effective in treating these veterans PTSD. Information reported by veterans identified that many of them were also suffering from pain and had been consuming opiates to combat the pain. The opiates that these veterans were taking reportedly exacerbated PTSD symptoms. […] Patients of Laguna Honda Hospital in California were also provided medications that included both THC and CBD and reported benefit.

Each structure is given as a SMILES string. Read-outs that look alike come from different tables or passages of the source.

As for `Cc1c(C(=O)NN2CCCCC2)nn(-c2ccc(Cl)cc2Cl)c1-c1ccc(Cl)cc1` [SR1, Rimonabant], in data set [1], the “tumor volume over time” value is on record as “grew at a slower rate”. The “effect on pancreatic cancer cells/tumors in mice” value in data set [1] is “reducing pancreatic cancer tumors”; in data set [1] (listed as Rimonabant), “shrunk pancreatic cancer cells”.

For `CCCCCc1cc(O)c2c(c1)OC(C)(C)[C@@H]1CCC(C)=C[C@@H]21` [THC, tetrahydrocannabinol], in data set [2], the “benefit when treating pain combined with PTSD, versus combined THC/CBD medication” value is “either not effective or provided limited benefits” and the “psychotic side effects associated with PTSD” value was “increased psychotic side effects”.

In the case of `Nc1ccn([C@@H]2O[C@H](CO)[C@@H](O)C2(F)F)c(=O)n1` [Gemcitabine], the “tumor volume over time” value in data set [1] is “grew at even a slower rate”.

These data come from patent US12076308B2, “Terpene control in scaleable cannabinoid medicinal formulations” (priority 2015, dated 2024).
